Results from PubChem BioAssay (NCI).
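Following 48 hours of exposure in 96-well plates, responses at five concentrations were used to interpolate endpoints linearly. Abbreviation: GI50, concentration required for 50% inhibition of growth. At the TGI there is no net growth.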

Columns and labels:
Experiment in all cases: inhibition of tumour cell growth, NCI panel, 48 h
[1] = system: SN12C renal
[2] = system: HL-60(TB) leukemia
[3] = system: OVCAR-3 ovarian
[4] = system: UO-31 renal
[5] = system: RPMI-8226 leukemia
[6] = system: CAKI-1 renal
[7] = system: MOLT-4 leukemia
[8] = system: NCI-H23 lung
[9] = system: HS 578T breast
[10] = system: T-47D breast

Compound | GI50 [1] [µM] | TGI [1] [µM] | GI50 [2] [µM] | TGI [2] [µM] | GI50 [3] [µM] | TGI [3] [µM] | GI50 [4] [µM] | TGI [4] [µM] | GI50 [5] [µM] | TGI [5] [µM] | GI50 [6] [µM] | TGI [6] [µM] | GI50 [7] [µM] | TGI [7] [µM] | GI50 [8] [µM] | TGI [8] [µM] | GI50 [9] [µM] | TGI [9] [µM] | GI50 [10] [µM] | TGI [10] [µM]
COC(=O)CC[C@]1(C)O[C@H]2[C@H]([C@@H](C)CCCC(C)=O)OC(=O)[C@@H]2C[C@H]1O | > 100 | > 100 | > 100 | > 100 | 31.5 | > 100 | > 100 | > 100 | > 100 | > 100 | 32 | > 100 | > 100 | > 100 | 67.8 | > 100 |  |  |  | 
C=C(C#N)C1OCC2OC(C)(C)OC21 (centres undefined) |  | 38.2 |  | 43 |  | 46 |  | > 100 |  |  |  | 49.1 |  | 43.3 |  | 34.8 |  |  |  | 
COc1ccc(/C(=N\NC(=O)C(=O)NN)C(c2ccc(OC)cc2)C2(O)C(=O)Nc3ccccc32)cc1 (centres undefined) |  | > 100 |  |  |  | > 100 |  | 82.1 |  | > 100 |  | > 100 |  | > 100 |  | > 100 |  |  |  | 
COc1cc2c(cc1OC)-c1ccc3cc4c(cc3c1N(CCCn1ccnc1)C2)OCO4 | 0.382 | 16.9 | 1.92 | 5.71 | 2.26 | 5.97 | 16.7 | 60.5 | 1.31 | 5.62 |  |  | 0.467 | > 100 | 2.23 | 21.3 | 5.75 | 40 | 0.358 | 4.27
NC(=O)CCC(Nc1c2ccccc2nc2ccccc12)C(=O)O (centres undefined) |  | > 100 |  | > 100 |  | > 100 |  |  |  | > 100 |  | > 100 |  | > 100 |  | > 100 |  |  |  | 
COc1ccc2c3c([nH]c2c1[N+](=O)[O-])C(C)N(Cc1ccc([N+](=O)[O-])cc1)CC3 (centres undefined) |  | 60.7 |  | 17.9 |  | 64.7 |  | > 100 |  | 26.2 |  | 32.5 |  | > 100 |  | 44.5 |  |  |  | 
O=C(Nc1ccc(Cl)cc1Cl)C1C(=O)C(=O)N(c2ccc(Cl)cc2Cl)C1=O (centres undefined) |  | > 100 |  | > 100 |  | > 100 |  | > 100 |  |  |  | > 100 |  |  |  | > 100 |  |  |  | 
C#CCOCn1cnc2c(Sc3c([N+](=O)[O-])ncn3C)ncnc21 |  | > 100 |  | > 100 |  | > 100 |  | > 100 |  | > 100 |  | > 100 |  |  |  | > 100 |  |  |  | 
CCOC(=O)/C(=C\c1ccc(N(CCC#N)CCC#N)cc1)NC(=O)c1cc([N+](=O)[O-])ccc1Cl |  | > 100 |  | > 100 |  | > 100 |  | > 100 |  | > 100 |  | > 100 |  | > 100 |  | > 100 |  |  |  | 
Nc1c2c(c(O)c3c1=C(CO)C=N3)=NCCS2 | 0.167 | 0.332 | 0.222 | 0.512 | 0.164 | 0.35 | 0.161 | 0.345 | 0.583 | 3.12 |  |  | 0.223 | 0.541 | 0.0971 | 0.352 | 0.318 | 0.812 | 0.224 | 0.484
CC1=C[C@]2(O)C(=O)[C@H](C)C[C@H]3[C@@H](CC[C@@](C)(O)/C=C\2C1=O)C3(C)C |  | 41.5 |  | > 100 |  | 38.1 |  | > 100 |  | > 73.3 |  | 55.4 |  | > 62 |  | 72.6 |  |  |  | 
Cn1nc(-c2ccccc2)c(C(=O)/C=C/c2ccc(Cl)cc2)c(N2CCCCC2)c1=O |  | 20.5 |  | 4 |  |  |  | 3.03 |  | 5.52 |  | 3.94 |  | 4.65 |  | 5.48 |  |  |  | 
CC(=O)c1cccc(C)c1C(=O)O |  | > 100 |  | > 100 |  | > 100 |  | > 100 |  | > 100 |  | > 100 |  | > 100 |  | > 100 |  |  |  | 
CCOc1ccc(N=Cc2ccc3cc(C)ccc3n2)cc1 |  | > 100 |  | 48 |  | > 100 |  | > 100 |  | 57.3 |  | > 100 |  | 76.7 |  | > 100 |  |  |  | 
O=C1C=CC(=O)C12CCc1ccccc12 |  | > 100 |  | > 60.6 |  | > 100 |  | > 100 |  | 45.8 |  | > 31.6 |  | > 100 |  | > 100 |  |  |  | 
CC(C)(C)CC(C)(C)c1cc2c(O)c(c1)Cc1cc(C(C)(C)CC(C)(C)C)cc(c1O)Cc1cc(C(C)(C)CC(C)(C)C)cc(c1O)Cc1cc(C(C)(C)CC(C)(C)C)cc(c1O)Cc1cc(C(C)(C)CC(C)(C)C)cc(c1O)C2 |  | > 100 |  | > 100 |  | > 100 |  | > 100 |  | > 100 |  |  |  | > 100 |  | > 100 |  |  |  | 
O=C(CCc1nnc2s/c(=C\c3ccc(Cl)c(Cl)c3)c(=O)n12)Nc1ccc(Cl)c(Cl)c1 |  | > 100 |  | 64 |  | > 100 |  | > 100 |  | 62.2 |  | > 100 |  | 52.6 |  | > 100 |  |  |  | 
COC(=O)c1cc2c3ccccc3n3c(=O)c4cc5ccccc5nc4c(n1)c23 | > 100 | > 100 | > 100 | > 100 | > 100 | > 100 | > 100 | > 100 |  |  | > 100 | > 100 | > 100 | > 100 | > 100 | > 100 | > 100 | > 100 | > 100 | > 100
CC(C)[O-].CC(C)[O-].O=C1C=C([O-])C(=O)c2ccccc21.O=C1C=C([O-])C(=O)c2ccccc21.[Ti+4] | > 100 | > 100 | 17.4 | > 100 | > 70.5 | > 100 | > 100 | > 100 | 19.1 | > 100 | > 91.3 | > 100 | > 100 | > 100 | 3.94 | > 79.3 |  |  |  | 
C#CC1(OC(C)=O)CCC2C3CC=C4C=C(OC(C)=O)CCC4(C)C3CCC21C (centres undefined) |  | 45.1 |  | > 100 |  | 41.5 |  | 54.4 |  |  |  | 83.2 |  | 33.3 |  | 47.1 |  | > 100 |  | > 100
O=C(O)NC(c1ccccc1)C(NC(=O)c1ccccc1)c1ccccc1 (centres undefined) |  | > 100 |  |  |  | > 100 |  |  |  | > 100 |  | > 100 |  |  |  | > 100 |  |  |  | 
